This passage reports EC50 and activation results from patent US12583861B2, “Derivatives of imidazo[4,5-d]pyridazine, their preparation and their therapeutic application” (SANOFI, priority 2021, dated 2026).

One assay deals with T1, human TLR7 (Homo sapiens, UniProt Q9NYK1).
T1 construct: host or cells: HEK293 (HEK-Blue hTLR7)
T1 sequence (Q9NYK1 27-1049): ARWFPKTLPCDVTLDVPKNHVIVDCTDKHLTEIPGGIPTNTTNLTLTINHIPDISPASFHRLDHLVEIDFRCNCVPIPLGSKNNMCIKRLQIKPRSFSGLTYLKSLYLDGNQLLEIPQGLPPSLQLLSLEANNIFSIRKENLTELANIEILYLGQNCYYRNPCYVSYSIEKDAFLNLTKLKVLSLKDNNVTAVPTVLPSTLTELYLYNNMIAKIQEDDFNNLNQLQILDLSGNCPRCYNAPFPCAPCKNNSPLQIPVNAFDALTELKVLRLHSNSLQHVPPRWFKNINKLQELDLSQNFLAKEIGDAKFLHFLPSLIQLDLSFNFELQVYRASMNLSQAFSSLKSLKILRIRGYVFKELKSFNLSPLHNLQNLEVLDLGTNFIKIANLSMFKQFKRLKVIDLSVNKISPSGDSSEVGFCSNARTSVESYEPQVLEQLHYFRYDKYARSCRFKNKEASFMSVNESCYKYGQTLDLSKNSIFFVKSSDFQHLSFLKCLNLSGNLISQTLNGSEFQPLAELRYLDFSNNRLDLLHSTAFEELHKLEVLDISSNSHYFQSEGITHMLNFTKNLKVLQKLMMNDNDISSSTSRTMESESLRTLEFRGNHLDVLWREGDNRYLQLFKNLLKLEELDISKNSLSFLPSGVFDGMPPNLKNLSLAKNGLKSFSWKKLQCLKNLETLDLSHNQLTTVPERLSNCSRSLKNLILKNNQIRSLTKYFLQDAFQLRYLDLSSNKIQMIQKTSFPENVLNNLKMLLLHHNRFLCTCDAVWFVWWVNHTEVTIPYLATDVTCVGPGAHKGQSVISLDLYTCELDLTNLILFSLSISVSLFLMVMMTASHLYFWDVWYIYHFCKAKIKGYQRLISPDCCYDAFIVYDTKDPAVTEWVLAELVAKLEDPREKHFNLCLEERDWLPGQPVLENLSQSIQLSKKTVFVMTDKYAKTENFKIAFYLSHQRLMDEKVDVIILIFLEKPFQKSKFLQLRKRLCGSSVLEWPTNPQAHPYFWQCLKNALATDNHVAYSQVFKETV
Put plainly: HEK-Blue hTLR7 reporter cell assay (SEAP, NF-kB/AP-1) for stimulation of human TLR7. The class given is cell-based. The following applies: HEK-Blue hTLR7 cells; for EC50: read-out: TLR7_EC50; for activation at 20 µM: 24 h, at 20000 nM. The essentials: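 Activity expressed as EC50 for half-maximal SEAP induction. Compounds, serially diluted 3-fold from 20 to 0.01 μM, were incubated 24 h at 37 °C, 5% CO2 with HEK-Blue hTLR7 reporter cells (3.10E4/well, plated 18–24 h earlier); supernatant developed with QUANTI-Blue.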

In the next assay the target is T2, human TLR8 (Homo sapiens, UniProt Q9NR97).
T2 construct: host or cells: HEK293 (HEK-Blue hTLR8)
T2 sequence (Q9NR97 27-1041): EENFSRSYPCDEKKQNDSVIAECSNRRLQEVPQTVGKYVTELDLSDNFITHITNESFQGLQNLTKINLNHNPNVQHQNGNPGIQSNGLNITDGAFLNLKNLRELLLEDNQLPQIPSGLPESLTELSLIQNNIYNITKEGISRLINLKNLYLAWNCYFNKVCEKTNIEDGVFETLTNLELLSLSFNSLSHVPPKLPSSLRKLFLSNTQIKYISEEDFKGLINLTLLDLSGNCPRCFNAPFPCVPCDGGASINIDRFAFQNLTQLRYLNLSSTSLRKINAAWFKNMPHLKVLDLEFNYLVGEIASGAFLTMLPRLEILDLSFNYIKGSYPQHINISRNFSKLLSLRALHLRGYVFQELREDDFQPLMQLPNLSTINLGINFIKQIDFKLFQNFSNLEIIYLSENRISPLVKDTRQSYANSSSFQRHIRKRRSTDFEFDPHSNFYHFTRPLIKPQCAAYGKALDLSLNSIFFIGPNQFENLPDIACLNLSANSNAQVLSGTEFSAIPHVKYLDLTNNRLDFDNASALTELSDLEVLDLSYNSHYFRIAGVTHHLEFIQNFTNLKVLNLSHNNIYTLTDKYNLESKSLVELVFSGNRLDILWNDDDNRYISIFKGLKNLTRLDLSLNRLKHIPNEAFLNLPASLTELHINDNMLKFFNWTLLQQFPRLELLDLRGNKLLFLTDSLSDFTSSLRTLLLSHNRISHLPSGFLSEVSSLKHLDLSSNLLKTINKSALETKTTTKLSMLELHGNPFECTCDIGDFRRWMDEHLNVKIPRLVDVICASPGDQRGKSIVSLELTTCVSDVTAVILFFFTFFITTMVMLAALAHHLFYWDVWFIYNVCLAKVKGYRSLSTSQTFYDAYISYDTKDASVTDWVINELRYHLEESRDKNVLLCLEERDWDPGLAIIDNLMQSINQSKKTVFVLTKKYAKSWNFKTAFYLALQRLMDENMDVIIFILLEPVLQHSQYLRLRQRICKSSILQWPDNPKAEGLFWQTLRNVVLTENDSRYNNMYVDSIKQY
The experiment in a line: HEK-Blue hTLR8 reporter cell assay (SEAP, NF-kB/AP-1) for stimulation of human TLR8. The class given is cell-based. As to conditions: HEK-Blue hTLR8 cells; for activation at 20 µM: 24 h, at 20000 nM; for EC50: 24 h incubation, SEAP readout, read-out: TLR8_EC50. The method, boiled down: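 Stimulation is quantified as secreted alkaline phosphatase in supernatant using QUANTI-Blue™ substrate. Reporter HEK293 line co-transfected with hTLR8 and SEAP under an IFN-β minimal promoter with five NF-κB/AP-1 sites; 3.10E4 cells/well, 18 to 24 h pre-culture at 37° C. before compounds.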

Like-named read-outs stand apart in the source and are kept apart here.

Take `CCCCc1nc2c(N)nnc(C3=CCNC3)c2n1Cc1ccc(CN)cc1` [Compound 144, 1-[[4-(aminomethyl)phenyl]methyl]-2-butyl-7-(2,5-dihydro-1H-pyrrol-3-yl)imidazo[4,5-d]pyridazin-4-amine]: on human TLR7 (μM), the EC50 was over 20 µM. The compound further displayed an activation at 20 µM on human TLR8 of 14.7%.
On to `CCCCc1nc2c(N)nnc(OC(C)C)c2n1Cc1ccc(CNCCOC)cc1` [Compound 104, 2-butyl-7-isopropoxy-1-(4-(((2-methoxyethyl)amino)methyl)benzyl)-1H-imidazo[4,5-d]pyridazin-4-amine], for which the EC50 was found to be 0.022 µM on human TLR7 (24 h incubation, SEAP readout) and 0.546 µM on human TLR8.
The like results for `CCCCc1nc2c(N)nnc(OC(C)C)c2n1CCCCN(C(C)=O)C1CS(=O)(=O)C1` [Compound 153, N-[4-(7-amino-2-butyl-4-isopropoxy-imidazo[4,5-d]pyridazin-3-yl)butyl]-N-(1,1-dioxothietan-3-yl)acetamide] were, in that order, 18.4 µM and over 20 µM.
`CCCc1nc2c(N)nnc(OC(C)C)c2n1Cc1ccc(CN)cc1` [Compound 158, 1-(4-(aminomethyl)benzyl)-7-isopropoxy-2-propyl-1H-imidazo[4,5-d]pyridazin-4-amine]: the EC50 is 0.717 µM on human TLR7 (24 h incubation, SEAP readout) and over 20 µM at human TLR8.
As for `CCCCc1nc2c(N)nnc(NCCCc3ccco3)c2n1Cc1ccc(OC)cc1` [Compound 94, 2-butyl-N7-(3-(furan-2-yl)propyl)-1-(4-methoxybenzyl)-1H-imidazo[4,5-d]pyridazine-4,7-diamine], the EC50 on human TLR7 (24 h incubation, SEAP readout) stood at 0.226 µM. On human TLR8, this compound gave an activation at 20 µM of 11%.
For the compound `CCCCc1nc2c(N)nnc(OCc3ccccc3)c2n1Cc1ccc(OC)cc1` [Compound 52, 7-(benzyloxy)-2-butyl-1-(4-methoxybenzyl)-1H-imidazo[4,5-d]pyridazin-4-amine], the EC50 was 0.551 µM on human TLR7 (24 h incubation, SEAP readout) and over 20 µM at human TLR8.
The like results for `CCCCc1nc2c(N)nnc(OC(C)C)c2n1Cc1ccc(CNC2CS(=O)(=O)C2)cc1` [Compound 37, 3-((4-((4-amino-2-butyl-7-isopropoxy-1H-imidazo[4,5-d]pyridazin-yl)methyl)benzyl)amino)thietane 1,1-dioxide] were, in that order, 0.317 µM and over 20 µM.
Consider `CCCCc1nc2c(N)nnc(C3CCNC3)c2n1Cc1ccc(CN)cc1` (centres unmarked) [Compound 145, 1-[[4-(aminomethyl)phenyl]methyl]-2-butyl-7-pyrrolidin-3-yl-imidazo[4,5-d]pyridazin-4-amine], for which the activation at 20 µM on human TLR7 is 2.2%; on human TLR8, 11.7%.
For `CCCCc1nc2c(N)nnc(OC(C)C)c2n1CCCCCN` [Compound 77, 1-(5-aminopentyl)-2-butyl-7-isopropoxy-1H-imidazo[4,5-d]pyridazin-4-amine], the EC50 on human TLR7 (24 h incubation, SEAP readout) is 0.39 µM; on human TLR8 it was over 20 µM.
In the case of `CCCCc1nc2c(N)nnc(OC(C)C)c2n1Cc1ccc(CN2CCCC2)cc1` [Compound 101, 2-butyl-7-isopropoxy-1-(4-(pyrrolidin-1-ylmethyl)benzyl)-1H-imidazo[4,5-d]pyridazin-4-amine], the EC50 at human TLR7 (24 h incubation, SEAP readout) is 0.013 µM; on human TLR8 it was 0.355 µM.
On to `CCCCc1nc2c(N)nnc(OC(C)C)c2n1Cc1cccc(CNC)c1` [Compound 124, 2-butyl-7-isopropoxy-1-(3-((methylamino)methyl)benzyl)-1H-imidazo[4,5-d]pyridazin-4-amine], for which the EC50 at human TLR7 (24 h incubation, SEAP readout) turned out to be 0.178 µM; at human TLR8, 0.231 µM.
`CCCCc1nc2c(N)nnc(OC(C)C)c2n1Cc1cccc(CN2CCNCC2)c1` [Compound 131, 2-butyl-7-isopropoxy-1-(3-(piperazin-1-ylmethyl)benzyl)-1H-imidazo[4,5-d]pyridazin-4-amine]: the EC50 at human TLR7 (24 h incubation, SEAP readout) was 0.607 µM; at human TLR8, over 20 µM.
In turn, `CCCCc1nc2c(N)nnc(-c3cnn(C)c3)c2n1Cc1ccc(OC)cc1` [Compound 97, 2-butyl-1-(4-methoxybenzyl)-7-(1-methyl-1H-pyrazol-4-yl)-1H-imidazo[4,5-d]pyridazin-4-amine] returned an activation at 20 µM at human TLR7 of 13%. In addition, the EC50 at human TLR8 is over 20 µM.
